Common to all, as to assay type: cell-based
The test system of assay [1] is Klebsiella pneumoniae XNWB 0002 (KPC-2, SHV-5). The assay can be described thus: microbe, parasite or virus in culture. The procedure:
(§1) The bacterial strains used for the minimum inhibitory concentration (MIC) test were frozen in a −80° C. ULT freezer and thawed 2 days before use. A small amount of frozen bacterial strains were scraped using a sterile inoculating loop, streaked onto a TSA solid culture dish for inoculation, and then cultured for 20-24 h at 35±2° C. in a normal atmospheric environment.
(§2) 5-10 colonies with similar morphology were picked from the culture dish using a sterile inoculating loop and then re-streaked onto a suitable solid culture dish. Then the dish was placed into a normal incubator for culture for 20-24 h at 35±2° C.
(§3) 5-10 single bacterial colonies were picked from the solid culture dish, resuspended in 500 μL of 0.9% NaCl, and adjusted to an OD600 of 0.1-0.15 with a spectrophotometer.
(§4) The bacteria were then diluted 300-fold with 1.1×CAMHB.
(§5) After addition, the 6 assay plates were covered by sterile covers. The mixtures in the assay plates were centrifuged by a centrifuge at 1000 rpm for 30 s, and mixed uniformly by oscillating with a microplate oscillator at 800 rpm for 1 min, and then cultured in a common incubator for 16-20 h at 35±2° C.
(§6) The minimum inhibitory concentration of each compound was recorded by reference to guidelines from the Clinical and Laboratory Standards Institute.
(§7) The minimum inhibitory concentrations of the compounds of the present invention and antibiotics (imipenem, ceftazidime, and ampicillin) against 11 strains of bacteria were tested in this study by reference to the medium microdilution method as indicated by the Clinical and Laboratory Standards Institute. The effect of the test compounds in combination with imipenem, ceftazidime, and ampicillin was also tested. Compounds were diluted two-fold in 96-well plates from the highest detection concentration of 64 μg/mL. The test compounds were tested in combination with a fixed concentration of imipenem (4 μg/mL), ceftazidime (8 μg/mL), and ampicillin (8 μg/mL). The bacterial inocula in the assay plates were resuscitated from TSA and diluted in CAMHB, while growth controls (GC wells) and sterile controls (SC wells) were set up in the assay plates.

Assay [2] relates to Klebsiella pneumoniae XNWB 0004 (KPC-2, SHV-12). The assay can be described thus: microbe, parasite or virus in culture. As for the experimental part:
as §1, §2, §3, §4, §5, §6, §7

Assay [3] concerns Acinetobacter baumannii XNWB 0007 (AmpC). The assay can be described thus: MIC of antibiotics alone, broth microdilution. The settings on record: antibiotic alone, A. baumannii XNWB 0007, β-lactamase AmpC. The procedure:
as §1, §2, §3, §4, §5, §6, §7

For assay [4], the system named is Enterobacter aerogenes XNWB 0011 (TEM-10). Description: MIC of antibiotics alone, broth microdilution. The following applies: Klebsiella aerogenes; antibiotic alone; E. aerogenes XNWB 0011, β-lactamase TEM-10. The procedure:
as §1, §2, §3, §4, §5, §6, §7
Background: In broth dilution the organism is exposed to a series of concentrations in liquid medium.

The subject of assay [5] is Escherichia coli XNWB 0009 (SHV-5A). Description: MIC of antibiotics alone, broth microdilution. As for the experimental part: as §1, §2, §3, §4, §5, §6, §7
Assay [6] relates to Escherichia coli XNWB 0010 (SHV-2). Description: MIC of antibiotics alone, broth microdilution. The following applies: antibiotic alone, E. coli XNWB 0010, β-lactamase SHV-2. As for the experimental part:
as §1, §2, §3, §4, §5, §6, §7

Assay [7] has as its system Klebsiella pneumoniae XNWB 0001 (KPC-1/2). Description: MIC of antibiotics alone, broth microdilution. The following applies: antibiotic alone, K. pneumoniae XNWB 0001, β-lactamase KPC-1/2. The procedure: as §1, §2, §3, §4, §5, §6, §7
For assay [8], the system named is Klebsiella pneumoniae XNWB 0003 (KPC-11, SHV-12). The assay can be described thus: MIC of antibiotics alone, broth microdilution. The procedure: as §1, §2, §3, §4, §5, §6, §7
For assay [9], the system named is Klebsiella pneumoniae XNWB 0005 (KPC-3). The assay can be described thus: MIC of antibiotics alone, broth microdilution. The procedure:
as §1, §2, §3, §4, §5, §6, §7

Assay [10] relates to Klebsiella pneumoniae XNWB 0006 (CTX-M-15, SHV). Description: MIC of antibiotics alone, broth microdilution. As for the experimental part:
as §1, §2, §3, §4, §5, §6, §7

Assay [11] concerns Pseudomonas aeruginosa XNWB 0008 (AmpC). Description: MIC of antibiotics alone, broth microdilution. The procedure:
as §1, §2, §3, §4, §5, §6, §7

Where [12] appears, read: antibiotic alone, K. pneumoniae XNWB 0003, β-lactamase KPC-11, SHV-12, read-out: MIC.
Where [13] appears, read: antibiotic alone, K. pneumoniae XNWB 0005, β-lactamase KPC-3, read-out: MIC.
Where [14] appears, read: antibiotic alone, P. aeruginosa XNWB 0008, β-lactamase AmpC, read-out: MIC.

Where two headings read alike, the source gives them in different places.

Consider `CC(C)(O/N=C(\C(=O)N[C@@H]1C(=O)N2C(C(=O)[O-])=C(C[n+]3ccccc3)CS[C@H]12)c1csc(N)n1)C(=O)O` [Ceftazidime], for which the MIC in [1] was 128 µg/mL; in [2], greater than 128 µg/mL; in assay [3], 64 µg/mL; in [4] it was 0.5 to 1 µg/mL; in assay [5], 16 to 32 µg/mL; in assay [6] it was 4 to 16 µg/mL. Further, the MIC in assay [7] is 64 to 128 µg/mL; in assay [8] it was greater than 128 µg/mL; in [9], greater than 128 µg/mL; in assay [10] it was greater than 128 µg/mL; in [11] it was 128 µg/mL.

Turning to `C[C@@H](O)[C@H]1C(=O)N2C(C(=O)O)=C(SCCN=CN)C[C@H]12` [Imipenem], the MIC in assay [1] was 32 to 64 µg/mL; in assay [2] it was 64 µg/mL; in assay [3], 32 to 64 µg/mL; in assay [4], 0.5 to 1 µg/mL; in [5] it was 0.125 to 0.5 µg/mL; in assay [6] it was no more than 0.125 µg/mL. Further, the MIC in assay [7] was in the range of 64 to 128 µg/mL; in assay [8] (setting [12]), 8 to 16 µg/mL; in assay [9] (setting [13]), 32 to 64 µg/mL; in assay [10], 0.125 to 0.5 µg/mL; in [11] (setting [14]) it was 16 to 32 µg/mL.

On to `CC1(C)S[C@@H]2[C@H](NC(=O)[C@H](N)c3ccccc3)C(=O)N2[C@H]1C(=O)O` [Ampicillin], for which the MIC in assay [1], in assay [2], in assay [3], in [4], in [5] and in assay [6] was greater than 32 µg/mL throughout. Besides, the MIC in assay [7] was greater than 32 µg/mL; in assay [8] (setting [12]), greater than 32 µg/mL; in assay [9] (setting [13]), greater than 32 µg/mL; in [10] (antibiotic alone, K. pneumoniae XNWB 0006, β-lactamase CTX-M-15, SHV, read-out: MIC) it was greater than 32 µg/mL; in assay [11] (setting [14]), greater than 32 µg/mL.

The values above are taken from US11078202B2, “β-lactamase inhibitor and use thereof” (priority 2018, dated 2021).
